Laboratory results from patent US11951137B2, “Compositions comprising unsaturated fatty acids and nitric oxide releasing compounds and use thereof for enhancing cognitive and related functions” (SOCIETE DES PRODUITS NESTLE S.A., priority 2008, dated 2024).

Tested on: human iCell neurons
Experiment: Amyloid beta 42 ELISA on supernatant, neuronal model
Conditions: treated 2 days, 3 concentrations, FIG. 2
Procedure: For a neuronal model, human iCell neurons (Cellular Dynamics International) were plated in 96-well plates and were grown to neuronal maturity by culturing for 2 weeks.
In each model, cells were then treated with DHA (UFA), arginine and citrulline (NORC's) at 3 different concentrations (see table 1 in FIG. 1) for 2 days. The supernatant was used to perform Amyloid beta 42 (A131-42) ELISA Kit, Human (KHB3441, Thermo Fisher Scientific).

Row | SMILES | release of Aβ1-42
1 | NC(=O)NCCC[C@H](N)C(=O)O [citrulline] | no effect
2 | CC/C=C\C/C=C\C/C=C\C/C=C\C/C=C\C/C=C\CCC(=O)O [DHA, docosahexaenoic acid] | no effect
